Experimental findings from patent US10221190B2, “Biguanide compounds and use thereof” (IMMUNOMET THERAPEUTICS INC., priority 2013, dated 2019) are described below.

This assay relates to HCT116 cell. The experiment in a line: Inhibitory activity against cancer cells (MTT cell viability), HCT116. It counts as cell-based, human. The following applies: Homo sapiens, HCT 116, 48 hr incubation. On the procedure: The inhibitory activities of biguanide derivatives against cancer cells were evaluated in the cell line SK-MEL-28 derived from human Melanoma cell, Miapaka-2 cell line derived from human pancreatic cancer cell and HCT116 cell line derived from human colorectal cancer cell by measuring the concentration that inhibits 50% of the growth of the cell lines (the half maximal inhibitory concentration, IC50).
Firstly, SK-MEL-28 cells were grown to be density of 5,000 cells/well in RPMI-1640 media supplemented with 10% (v/v) bovine calf serum, on 96-well plates for 16 hr. To measure the IC50 of each compound, the cells were incubated for 48 hr with the 100 mM PBS stock compounds at an amount of 10 mM, 1 mM, 200 uM, 40 uM, 8 uM, 1.6 uM, 0.32 uM or 0.064 uM; 50 mM PBS and EtOH stock compounds at an amount of 1 mM, 200 uM, 40 uM, 8 uM, 1.6 uM, 0.32 uM and 0.064 uM; and 50 mM DMSO stock compounds at an amount of 100 uM, 25 uM, 6.25 uM, 1.56 uM, 0.39 uM, 0.10 uM and 0.02 uM, respectively. To test the viable cells after incubation with each compound, the cell cultures were incubated additionally for 2 hr in the presence of MTT. The produced formazan crystals were dissolved with dimethyl sulfoxide and then measured by detecting the absorbance at 560 nm.
After the 48 hr incubation, the viable cells were counted on the well plates treated with the compounds of the Examples relative to the count of the viable cells on the non-treated plates, and then was represented as the cell viability (%). By using the cell viability (%) result, the cell viability curve was plotted, and IC50 was calculated from the curve to evaluate the inhibitory activity against cancer cells.
The inhibitory activities of biguanide derivatives against cancer cells of Miapaca-2 cell and HCT116 cell were evaluated according to the substantially same method as described in SK-MEL-28 cell, except that DMEM media supplemented with 10% (v/v) bovine calf serum was used instead of RPMI-1640 media supplemented with 10% (v/v) bovine calf serum for SK-MEL-28 cell.
`COc1ccc(NC(=N)NC(=N)N2CCCC2)cc1` [Example 2, N1-pyrrolidine-N5-(4-methoxy)phenyl biguanide] gave an IC50 of over 100 µM.

`COc1ccc(NC(=N)NC(=N)N2CCCC2)cc1Cl` [Example 3, N1-pyrrolidine-N5-(3-chloro-4-methoxy)phenyl biguanide] displayed an IC50 of over 100 µM.

Regarding `CN(C(=N)NC(=N)N1CCCC1)c1c(F)cccc1F` [Example 4, N1-pyrrolidine-N5-(2,6-difluoro-N5-methyl)phenyl biguanide], the IC50 was over 100 µM.

Consider `CN(C)c1ccc(NC(=N)NC(=N)N2CCCC2)cc1` [Example 5, N1-pyrrolidine-N5-(4-dimethylamino)phenyl biguanide], for which the IC50 was over 100 µM.

In turn, `N=C(NC(=N)N1CCCC1)Nc1cccc(-c2ccccc2)c1` [Example 8, N1-pyrrolidine-N5-(N-biphenyl-3-yl) biguanide] had an IC50 of 6.97 µM.

`N=C(NC(=N)N1CCCC1)Nc1ccc(-c2ccccc2)cc1` [Example 9, N1-pyrrolidine-N5-(N-biphenyl-4-yl) biguanide] yielded an IC50 of 7.43 µM.

`N=C(NC(=N)N1CCCC1)Nc1cccc(-c2ccc(F)cc2)c1` [Example 10, N1-pyrrolidine-N5-(4′-fluorobiphenyl-3-yl) biguanide] had an IC50 of 6.28 µM.

In the case of `N=C(NC(=N)N1CCCC1)Nc1ccc(-c2cccc(F)c2)cc1` [Example 11, N1-pyrrolidine-N5-(3′-fluorobiphenyl-4-yl) biguanide], the IC50 worked out at 6.46 µM.

With `N=C(NCCc1ccc(F)cc1)NC(=N)N1CCCC1` [Example 12, N1-pyrrolidine-N5-(4-fluoro)phenethyl biguanide], the IC50 came to 81.9 µM.

In turn, `CC(C)(NC(=N)NC(=N)N1CCCC1)c1ccccc1` [Example 13, N1-pyrrolidine-N5-(2-phenylpropane-2-yl) biguanide] showed an IC50 of over 100 µM.

With `N=C(NC(=N)N1CCCC1)NC1CCCc2ccccc21` (stereo not shown) [Example 15, N1-pyrrolidine-N5-(1,2,3,4-tetrahydronaphthalen-1-yl) biguanide], the IC50 stood at 712 µM.

Consider `N=C(NC(=N)N1CC[C@@H](O)C1)Nc1ccc(OC(F)(F)F)cc1` [Example 19, N1-(R)-3-hydroxy pyrrolidine-N5-(4-trifluoromethoxy)phenyl biguanide], for which the IC50 is over 100 µM.

On to `N=C(NC(=N)N1CCC(O)CC1)Nc1ccc(Oc2ccccc2)cc1` [Example 21, N1-4-hydroxy piperidine-N5-(4-phenoxy)phenyl biguanide], for which the IC50 is over 100 µM.

The compound `N=C(NCc1ccc(C(=O)N2CCCCC2)cc1)NC(=N)N1CCCC1` [Example 25, N—(N-(4-(piperidine-1-carbonyl)benzyl)carbamimidoyl)pyrrolidine-1-carboximidamide] had an IC50 of over 100 µM.

The compound `N=C(NC(=N)N1CCCC1)Nc1ccc(CCC(=O)N2CCCCC2)cc1` [Example 26, N—(N-(4-(3-oxo-3-(piperidin-1-yl)propyl)phenyl)carbamimidoyl)pyrrolidine-1-carboximidamide] had an IC50 of over 100 µM.

Regarding `CCNC(=O)c1ccc(CNC(=N)NC(=N)N2CCCC2)cc1` [Example 27, N-ethyl-4-((3-(imino(pyrrolidin-1-yl)methyl)guanidino)methyl)benzamide], the half-inhibitory concentration (IC50) was over 100 µM.

The compound `N=C(NC(=N)N1CC[C@H](O)C1)Nc1ccc(SCC(=O)N2CCCCC2)cc1` [Example 29, (S)-3-hydroxy-N—(N-(4-(2-oxo-2-(piperidin-1-yl)ethylthio)phenyl)carbamimidoyl)pyrrolidine-1-carboximidamide] came in with an IC50 of over 100 µM.

For the compound `CCNC(=O)c1cccc(CNC(=N)NC(=N)N2CCCC2)c1` [Example 30, N-ethyl-3-((3-(imino(pyrrolidin-1-yl)methyl)guanidino)methyl)benzamide], the half-maximal inhibitory concentration (IC50) is over 100 µM.

In the case of `CN1CCN(C(=N)NC(=N)Nc2ccc(Br)cc2)CC1` [Example 31, N1-4-methyl piperazine-N5-(4-bromo)phenyl biguanide], the IC50 was 93.6 µM.

`CN1CCN(C(=N)NC(=N)Nc2cccc(Br)c2)CC1` [Example 32, N1-4-methyl piperazine-N5-(3-bromo)phenyl biguanide] returned an IC50 of 90.3 µM.

Turning to `CN1CCN(C(=N)NC(=N)Nc2ccccc2Br)CC1` [Example 33, N1-4-methyl piperazine-N5-(2-bromo)phenyl biguanide], the IC50 is over 100 µM.

The compound `CN1CCN(C(=N)NC(=N)NCc2cccc(Br)c2)CC1` [Example 34, N1-4-methyl piperazine-N5-(3-bromo)benzyl biguanide] returned an IC50 of over 100 µM.

As to `CN1CCN(C(=N)NC(=N)Nc2ccc(F)c(C(F)(F)F)c2)CC1` [Example 35, N1-4-methyl piperazine-N5-(4-fluoro-3-trifluoromethyl)phenyl biguanide], the 50% inhibitory concentration (IC50) was found to be 32.4 µM.

`CN1CCN(C(=N)NC(=N)Nc2ccc(OC(F)(F)F)c(Cl)c2)CC1` [Example 36, N1-4-methyl piperazine-N5-(3-chloro-4-trifluoromethoxy)phenyl biguanide]: it took 7.1 µM to reach half-maximal inhibition (IC50).

Regarding `CN1CCN(C(=N)NC(=N)Nc2ccc(OC(F)(F)F)c(F)c2)CC1` [Example 37, N1-4-methyl piperazine-N5-(3-fluoro-4-trifluoromethoxy)phenyl biguanide], the 50% inhibitory concentration (IC50) stood at 32.3 µM.

On to `CN1CCN(C(=N)NC(=N)Nc2ccc(Cl)c(C(F)(F)F)c2)CC1` [Example 38, N1-4-methyl piperazine-N5-(4-chloro-3-trifluoromethyl)phenyl biguanide], for which it took 11.7 µM to reach half-maximal inhibition (IC50).

On to `CN1CCN(C(=N)NC(=N)Nc2ccc(Cl)c(OC(F)(F)F)c2)CC1` [Example 39, N1-4-methyl piperazine-N5-(4-chloro-3-trifluoromethoxy)phenyl biguanide], for which it took 7.5 µM to reach half-maximal inhibition (IC50).

`CN1CCN(C(=N)NC(=N)NCc2ccc(F)c(OC(F)(F)F)c2)CC1` [Example 41, N1-4-methyl piperazine-N5-(4-fluoro-3-trifluoromethoxy)benzyl biguanide] had an IC50 of over 100 µM.

Compound `CN1CCN(C(=N)NC(=N)NCc2ccc(C(F)(F)F)c(F)c2)CC1` [Example 42, N1-4-methyl piperazine-N5-(3-fluoro-4-trifluoromethyl)benzyl biguanide] returned a 50% inhibitory concentration (IC50) of over 100 µM.

Turning to `CN1CCN(C(=N)NC(=N)NCc2ccc(OC(F)(F)F)c(F)c2)CC1` [Example 43, N1-4-methyl piperazine-N5-(3-fluoro-4-trifluoromethoxy)benzyl biguanide], the IC50 is over 100 µM.

For `CN1CCN(C(=N)NC(=N)Nc2ccc(C(F)(F)F)c(F)c2)CC1` [Example 44, N1-4-methyl piperazine-N5-(3-fluoro-4-trifluoromethyl)phenyl biguanide], the IC50 came out at 42.2 µM.

Compound `CCN1CCN(C(=N)NC(=N)Nc2ccc(OC(F)(F)F)cc2)CC1` [Example 45, N1-4-ethyl piperazine-N5-(4-trifluoromethoxy)phenyl biguanide] showed an IC50 of 33.8 µM.

As to `C[C@@H]1CCC[C@H](C)N1C(=N)NC(=N)Nc1ccc(CCN)cc1` [Example 46], the concentration for half-maximal inhibition (IC50) was over 100 µM.

`N=C(NC(=N)N1CCCC1)Nc1ccc(CCN)cc1` [Example 47] displayed an IC50 of over 100 µM.

For `CC1CCCCN1C(=N)NC(=N)Nc1ccc(CCN)cc1` (stereo not shown) [Example 48], the IC50 was over 100 µM.

`CC1CC(C)CN(C(=N)NC(=N)Nc2ccc(CCN)cc2)C1` (stereo not shown) [Example 49] registered a half-maximal inhibitory concentration (IC50) of over 100 µM.

Regarding `CC1CCCN(C(=N)NC(=N)Nc2ccc(CCN)cc2)C1` (stereo not shown) [Example 50], the 50% inhibitory concentration (IC50) is over 100 µM.

`N=C(NC(=N)N1CCC(F)(F)C1)Nc1ccc(OC(F)(F)F)cc1` [Example 51, N1-3,3-difluoro pyrrolidine-N5-(4-trifluoromethoxy)phenyl biguanide]: the IC50 was 7.83 µM.

The compound `N=C(NC(=N)N1CCC(F)(F)CC1)Nc1ccc(OC(F)(F)F)cc1` [Example 52, N1-4,4-difluoro piperidine-N5-(4-trifluoromethoxy)phenyl biguanide] registered an IC50 of 7.65 µM.

The compound `N=C(N)NC(=N)Nc1ccc(Cl)cc1Cl` [Example 54] had an IC50 of over 100 µM.

On to `N=C(N)NC(=N)Nc1ccc(F)cc1` [Example 55, N5-4-fluorophenyl biguanide], for which the IC50 is over 100 µM.

The compound `N=C(N)NC(=N)Nc1ccc(Cl)c(Cl)c1` [Example 56] returned an IC50 of 34.8 µM.

In the case of `N=C(N)NC(=N)Nc1cc(C(F)(F)F)ccc1Cl` [Example 57, N5-(2-chloro-5-trifluoromethyl)phenyl biguanide], the half-inhibitory concentration (IC50) is over 100 µM.

In turn, `N=C(N)NC(=N)Nc1ccc(F)c(Cl)c1` [Example 58, N5-(3-chloro-4-fluoro)phenyl biguanide] returned an IC50 of over 100 µM.

`N=C(N)NC(=N)Nc1cccc(Cl)c1Cl` [Example 59, N5-(2,3-dichloro)phenyl biguanide] had an IC50 of over 100 µM.

With `N=C(N)NC(=N)Nc1ccc(SC(F)(F)F)cc1` [Example 60, N5-(4-trifluoromethylthio)phenyl biguanide], the IC50 stood at 49.8 µM.

The term IC50 denotes the concentration needed to halve the response being measured. The low end stands for greater potency in that assay, the high end for weaker potency in that assay.
